For one assay, the system named is dHL-60 cells. Kind of assay: dHL-60 cell (neutrophil) migration in microfluidic competitive chemotaxis-chip (μC3). The assay is classed as cell-based, Human. The settings on record: 125 μg/mL PG sample, 10 nM fMLP, 100 nM LTB4, 5 hours; for Percentage of Cells Migrated toward stimulus: mean±SD of three biological replicates. The source says:
Fresh, mixed donor human peripheral blood mononuclear cells (PBMCs) (Zen-Bio) were re-suspended in PBMC media (Zen-Bio) overnight prior to stimulations. Human NOD2 reporter cells, which were used to detect PG in OMVs (see below), were purchased from Invi-vogen and cultured as recommended by the manufacturer. Human promyelocytic leukemia cells (HL-60 CCL-240, American Type Culture Collection ATCC, Manassas, Va.) were cul-tured in complete media comprising of Iscove's Modified Dulbecco's Medium (IMDM, ATCC, Manassas, Va.) supplemented with 10% fetal bovine serum (FBS, ATCC, Manassas, Va.) at 37° C. in 5% CO2, according to ATCC instructions. HL-60 cells were differentiated into a neutrophil-like state with 1.5% dimethyl sulfoxide (DMSO, Sigma-Aldrich, St. Louis, Mo.) to 1.5×10^5 cells/mL for five days. Differentiated HL-60 cells (dHL-60 cells) were stained with Hoechst solution [20 mM] for 10 minutes (Thermo Fisher Scientific, Waltham, Mass.) at 37° C. and 5% CO2 and spun down and re-suspended into a concentration of 5.0×10^7 cells/mL immediately before use in the migration assay.
The microfluidic competitive chemotaxis-chip (μC3) was used to perform each migration assay. This device allowed for the creation of a dual gradient through two opposing chemoattractant reservoirs. The central cell-loading chamber is connected to the two reservoirs by perpendicular cell migration ladders (measured 10 μm wide×10 μm tall). Device fabrication was as previously. Briefly, two layers of photoresist (SUB, MicroChem), the first one 10 μm thin (corresponding to the migration channels) and the second one 70 μm thick (corresponding to the neutrophil loading chamber) were patterned on one silicon wafer sequentially using two photolithographic masks and processing cycles according to the instructions from the manufacturer. The wafer with patterned photoresist was used as a mold to produce polydimethylsiloxane (PDMS) (Sylgard 184, Elsworth Adhesives, Wilmington, Mass.) devices, which were then bonded to the base of glass-bottom 6-well plates (MatTek Corp., Ashland, Mass.), using an oxygen plasma machine (Nordson March, Concord, Calif.). Prior to each migration assay, the device was primed with fibronectin (Sigma-Aldrich, St. Louis, Mo.) (11 μg/mL). After priming with fibronectin, each device was covered in 4 mL complete media. […]
Each assay was visualized on a fully automated Nikon TiE microscope using a Plan Fluor 10×Ph1 DLL (NA=0.3) lens with a biochamber heated to 37° C. with 5% CO2. […] Image analysis of cell migration counts was analyzed automatically using ImageJ Cell tracking was conducted using an automated tracker, TrackMate (custom tracking and analysis codes are available for download at https://github.com/boribong/Single-Cell-Migration-Tracking) and ImageJ software (NIH). […]

The subject of assay [1] is B. burgdorferi 5A11 and 5A11/napA. As to the kind of experiment: Lysozyme and NaCl stress tests (microtiter growth, colony forming units). It is filed as cell-based, Borrelia burgdorferi. The note with it: microtiter plate, end-point after 6 days, FIG. 7A.
Description: Initial studies geared towards understanding both permissive and restrictive growth conditions upon stress were performed in microplates with serial dilutions. Each strain was cultured to ˜1×10^6 cells/mL and subsequently back diluted to a final concentration of 1×10^4 cells/mL in fresh B SKIT containing cell-wall stress. Lysozyme and NaCl were serially diluted 1:1. The final concentration of Lysozyme ranged from 2 mg/mL to 0 mg/mL, while NaCl varied from 500 nM to 7.8 mM. […] Both microtiter plates contained 4 wells of uninoculated media, which served as a negative control. These 96 well plates were allowed to incubate at 37° C. under 5% CO2 for 6 days. Afterwards, they were placed at ambient conditions for 2 hours before being imaged.
Parental and NapA mutant bacteria were cultured to ˜6.5×10^6 cells/mL and back diluted to a final starting concentration of 10^6 cells/mL. Each culture was stressed with Lysozyme (0.37 mg/mL) or NaCl (0.111 M) for 24 hours without additional antibiotic selection. Afterwards, each culture was plated using standard methods [92] and cultured at 37° C. under 5% CO2.

Take `CCCCC/C=C\C[C@@H](O)/C=C/C=C/C=C\[C@@H](O)CCCC(=O)O` [LTB4, Leukotriene B4]: in the assay with dHL-60 cells, the “dHL-60 Cell Velocity, cells migrating toward stimulus” value stood at 7.04±4.90 μm/min and the “Percentage of Cells Migrated toward stimulus” value came to 25.89±3.52%.

As for `[Cl-].[Na+]` [NaCl], the “resistance of wild-type cells to NaCl-induced stress versus 5A11/napA” value in assay [1] (NaCl 7.8 to 500 mM) was “more than 8 times”.

Turning to “Formylmethionine-leucyl-phenylalanine [fMLP]”, in the assay on dHL-60 cells, the “dHL-60 Cell Velocity, cells migrating toward stimulus” value is reported as 6.93±4.40 μm/min and the “Percentage of Cells Migrated toward stimulus” value was determined as 35.94±5.42%.

Regarding Lysozyme, in assay [1] (Lysozyme 0 to 2 mg/mL), the “less enzyme needed to ablate 5A11/napA growth than wild-type bacteria” value is 5-6 times.

The record behind these values is patent publication US20220380443A1, “TARGETING NAPA-LINKED PEP[…] TREATING LYME DISEASE” (priority 2021, published 2022).
